In US8163803B2 (Fundação Oswaldo Cruz—FIOCRUZ, priority 2004, dated 2012):

Columns and labels:
[1] = system: isolated ileum of an experimental animal; experiment: Anaphylactic contraction of isolated ileum induced by antigen (ovoalbumin); settings: antigen (10 μg/ml), average ±SEM, at least 3 animals; read-out: Stimulation with antigen IC50
Protocol: Female and male experimental animals were used, weighing between 300 and 400 g, they came from Oswaldo Cruz Foundation's Center of Laboratory Animal Raising. The procedures involving the animals were examined and approved by Oswaldo Cruz Foundation's Committee of Animal Ethics (CEUA-FIOCRUZ, Licenca no. 00085-02). The animals were sensitized through a subcutanous injection with a mixture of 50 μg ovoalbumin and 5 mg Al(OH)3. From fourteen to thirty days after the sensitization, the experimental, animal was sacrificed in a chamber of carbonic gas to have its abdomen open and the location of the ileocecal valve. At this point, the intestine was sectioned and a segment of the small intestine, about 20 cm (equivalent to the ileum) was carefully removed and internally washed with a warmed solution (37° C.) of Tyrode (Composition in mM) (NaCl 137; KCl 2.7; NaH2PO4 0.42; NaHCO3 11.9; MgCl2 0.5; CaCl2 1.8; glucose 5.6) to remove the fecal content. […].
About 3-cm ileum fragments were vertically mounted in 10 ml glass cuvettes, immersed in Tyrode's solution at 37° C., aerated with carbogen (O2, 95% and CO2, 5%) and supplemented with atropine according to the standard procedure. The tissue had one of its ends tied to a rod while the other end was coupled with a transductor after the transference from the rod to the cuvette. The contractions were isotonically registered (basal tension of 1 g) with the support of a transductor of displacement-force connected to a computerized system to capture data. After a 30 minute period of balance, each segment was repeatedly stimulated by histamine (1 μM) until response stabilization. To induce anaphylatic contraction, ileum segments from sensitized experimental animals were stimulated by ovoalbumin (10 μg/ml). […]. The results were presented as a percentage of inhibition calculated in relation to the contractive effect obtained from stimulated and non-treated preparations.
Concentration-response data were adjusted through non-linear regression curves with the assistence of a graphics software (GraphPad Prism, USA). The concentration of an antagonist needed to inhibit the contractive response to inhibit the contractive response after stimulation by histamine or antigen at 50% (IC50) was used to compare the anti-spasmodic potency. The values expressed as an average ± standard error of the mean and statistically analysed through the test of analysis variance (ANOVA), followed by the Newman-Keuls-Student test.

[2] = system: experimental animal trachea; experiment: Relaxation of trachea pre-contracted by anaphylactic stimulation (ovoalbumin); settings: pre-contracted with ovoalbumin (20 μg/ml), average±SEM, at least 3 animals; read-out: IC50, concentration necessary to relax in 50% the anaphylatic spasm of trachea
Protocol: Female and male experimental animals were used, weighing between 300 and 400 g, they came from Oswaldo Cruz Foundation's Center of Laboratory Animal Raising. The procedures involving the animals were examined and approved by Oswaldo Cruz Foundation's Committee of Animal Ethics (CEUA-FIOCRUZ, License number 00085-02). The animals were sensitized through a subcutaneous injection with a mixture of 50 μg ovoalbumin and 5 mg Al(OH)3. Fourteen to thirty days after the sensitization, the experimental animal was sacrificed in a chamber of carbonic gas to have its trachea removed. The trachea was transferred to a Petri dish containing Krebs solution (composition in mM) (NaCl-119; […] NaHCO3-25; […] The total segment was divided into fragments of about 3 to 4 rings that were sectioned at the extreme ending, the muscular part of the trachea. Each fragment had one of its ends tied to a rod while the other end was connected to an isometric transductor (U Basile, Italy) after the transference from the rod to a 10 ml glass cuvette. […] The contractions were registered with the […] of a computerized system of data capture (Letica, Spain). […] The results were shown as a percentage of relaxation in relation to the plateau of the anaphylatic pre-contraction. Concentration-response data were adjusted through non-linear regression curves with the […] of a graphics software (GraphPad Prism, USA). […] The values were expressed as an average± standard error of the mean and statistically analysed through the test of analysis variance (ANOVA), followed by the Newman-Keuls-Student test.

eosinophils of rats = experiment: Cytosolic calcium increase in eosinophils stimulated with PAF (Fura 2-AM); assay type: cell-based, Wistar rats; settings: PAF (1 μM); for inhibition of citosolic calcium increase compared with lidocaine: 5 min pre-incubation
Protocol: Female and male Wistar rats were used, weighing between 200 and 250 g, they came from Oswaldo Cruz Foundation's Center of Laboratory Animal Raising. The procedures involving the animals were examined and approved by Oswaldo Cruz Foundation's Committee of Animal Ethics (CEUA-FIOCRUZ, Licenca no. 00085-02).
The animals were sacrificed in a chamber of CO2 and a population of cells containing 10-15% eosinophils were recovered from the peritoneal cavity after washing the same with 20 ml Hanks, as previously described. After centrifugation, the cellular sediment was resuspended and the leukocytes subtypes (mononuclear cells, eosinophils and mast cells) separated in a discontinuous gradient of Percoll (double layer) centrifugated at 400×g for 25 minutes. The eosinophils (85-95% purity) were recovered in the interface 56%-72%, washed in RPMi medium to eliminate residue of Percoll and related. The total cells isolated was obtained after the dilution of a sample in Türk liquid and couting in Neubauer chamber with the assistance of direct-light microscopy. The populational purity analysis was done by direct-light microscopy in cytocentrifugates dyed with May-Grunwald-Giemsa.
The eosinophils (1×10^7/ml) were loaded with 3 μM Fura 2-AM as described, washed in PBS enriched with 0.1% BSA, and resuspended in a final concentration of 0.5×10^6/ml PBS containing 0.25% BSA, HEPES and glucose ([…]). Alíquotas de células (1.5 ml) were dispensed in quartz cuvettes and balanced with 1 mM calcium at 37° C. for 10 minutes before being used. Fluorescence changes were measured by fluorometer Shimatzu (model RF 1501) as previously described. The calculus of free calcium was derived from the fluorescence spectrum (wave length of excitation, 340 and 380 nm; emission 510 nm) according to the method established. The values were represented as percentage of inhibition in relation to group control. […]
The values were expressed as an average± standard error of the mean and statistically analyzed through the test of variance analysis (ANOVA), followed by the Newman-Keuls-Student test.

| SMILES | IC50 [1] [µM] | IC50 [2] [µM] | inhibition of citosolic calcium increase compared with lidocaine (eosinophils of rats) | blocking of the increase of citosolic calcium (eosinophils of rats; highest concentration (1 mM), Average±SEM, n=8) [%] |
| --- | --- | --- | --- | --- |
| CCN(CC)CC(=O)Nc1cccc(C)c1C [JM23-1, 2-dyethylamine-2′,3′-acetoxylidide] | 330 | 220 ± 60 | equipotent to lidocaine |  |
| CCN(CC)CC(=O)Nc1ccc(C)cc1C [JM24-1, 2-dyethylamine-2′,4′-acetoxylidide] | 190 ± 40 | 30 | so effective as lidocaine and JM23-1 in higher concentrations |  |
| CCN(CC)CC(=O)Nc1c(C)cccc1C [Lidocaine, 1-(2-(dyethylamine)N-dymethylfenyl)-acetamide, reference compound] | 1430 ± 90 | 1350 ± 20 |  | 47±2 |
